Assay [1] concerns Acinetobacter pittii. Briefly: Ratio of MIC for Acinetobacter genomosp. 3 isolate 103 to MIC for Acinetobacter genomosp. 3 isolate 103 in presence of efflux pump inhibitor PAN. It counts as functional.
For assay [2], the system named is Acinetobacter pittii. The assay is described as follows: Ratio of MIC for Acinetobacter genomosp. 3 isolate 103 to MIC for Acinetobacter genomosp. 3 isolate 103 in presence of efflux pump inhibitor CCCP. It counts as functional.

Take `C[C@@H](O)[C@H]1C(=O)N2C(C(=O)O)=C(S[C@@H]3CN[C@H](C(=O)N(C)C)C3)[C@H](C)[C@H]12` [MEROPENEM]: the figures for the Ratio in the assay with Acinetobacter pittii [1] and with Acinetobacter pittii [2] were 4 and 3, respectively.

Source of the values: ChEMBL document CHEMBL1649124, “Genetic variability among ampC genes from acinetobacter genomic species 3” (Antimicrob Agents Chemother, 2009).
